Reference: patent US20220000964A1, “Compositions and Methods for Regulating Homeostasis of Chondrocytes, Extracellular Matrix, Articular Cartilage, and Phenotype of Arthritis” (Unigen, Inc., priority 2020, published 2022)
Where “and” joins values, the source holds several entries; their conditions need not be identical. Identical values can stand only once.

Experiments:
[1] = system: rabbit cartilage explants; assay: Inhibition of glycosaminoglycan (GAG) release, rabbit cartilage explants stimulated with rhIL-1α; assay type: cell-based; conditions: for inhibition at 25 µg/mL: 25 μg/ml; for inhibition at 100 µg/mL: 100 μg/ml
Experimental: Articular cartilage from hock joints of rabbits (2.5 kg body weight) was removed immediately after each animal was sacrificed. The articular cartilage explants were obtained by following the method described by Sandy et al, 1986. Briefly, after the articular surfaces were exposed surgically under sterile conditions, approximately 200-220 mg articular surfaces per joint were dissected and submerged into complete medium (DMEM, supplemented with heat inactivated 5% FBS; penicillin 100 U/ml; streptomycin 100 μg/ml). They were then rinsed several times with the complete medium and incubated for 2 days at 37° C. in a humidified 5% CO2/95% air incubator for stabilization. The complete medium was replaced with a basal medium (DMEM, supplemented with heat-inactivated 1% FBS, 10 mM HEPES, and penicillin 100 U/ml streptomycin 100 μg/ml). Approximately 30 mg cartilage pieces (2×3×0.35 mm/piece) were placed in 48-well plates and treated with given concentrations of test agents. After pretreatment for 1 h, 5 ng/ml of rhIL-1α was added to the culture medium and further incubated at 37° C. in a humidified 5% CO2/95% air incubator. The culture medium was collected 24 h later and stored at −80° C. until assay.
The amount of sulphated GAGs in the medium at the end of the reaction, reflecting the amount of articular cartilage degradation, was determined through 1,9-dimethy-methylene blue method using commercially available kit (the Blyscan proteoglycan and glycosaminoglycan assay) according to the instructions of the manufacturer. Diclofenac was utilized as a positive control at 300 μg/ml.
Dose curves of Alpinia, Pepper, Magnolia, and Kochia plant extracts were tested on the ex vivo glycosaminoglycan (GAG) release assay as illustrated in previous example to assess their cartilage protection effects. Cartilage explants were pre-treated with each extract before being exposed to IL-1α, which caused degradation and the release of GAGs from the cartilage matrix.

Sprague Dawley rats = assay: Hot plate test, topical application, paw withdrawal latency; assay type: in vivo, rat; conditions: for Paw withdrawal threshold (latency) Mean ± SD: in s (unit assumed); for % Change: negative = increased paw withdrawal latency; for increase in paw withdrawal latency as compared to vehicle: 5% concentration
Description: Repeated application of anti-inflammatory compounds or extracts topically at the site of thermal contact (noxious stimulus) may cause desensitization of the peripheral afferent pain receptors to produce a delay in response time. A longer change in reaction time could be interpreted as an anti-nociceptive effect of the applied compound. To evaluate whether prepared plant extracts and compositions could provide anti-nociceptive activity, rats received orally-active anti-inflammatory extracts formulated in 2% Aloe vera gel at 5% concentration topically on their hind paws. The applied preparations on each paw were massaged at least 60 times in a circular motion into the skin until the applied content appeared visually absorbed. The procedure was repeated 3 times, every 30 minutes, before placing the animals on a preheated hot plate set to 53° C. The paw withdrawal latency was calculated as the time elapsed from the initial placement of the rat onto the hotplate to the withdrawal (or licking or shaking) of the hind paw in response to the thermal stimulus. Animals were immediately removed when this response was observed.
The anti-pain activity of medicinal plant extracts was tested on a hot plate set at 53° C. Test materials at 5% concentrations were topically applied at 20 μl/paw to the hind paws of both right and left paws of Sprague Dawley rats (n=10 per group). Applications of these extracts were carried out every 30 minutes for a total of 90 minutes. Within these 90 minutes, rats received a total of 60 μl/paw of the test article per rat. At 5% concentration, each rat received 3 mg/paw of the test articles. Due to the solubility characteristics of the compounds, two types of vehicles, V1=Dimethyl sulfoxide (DMSO)+propylene glycol (PG)+Aloe (2%), and V2=DMSO+OIL+PG, were used. Percent changes and P-values for statistical significance were determined using respective vehicles for each test material. The vehicle used for each material has been indicated in the parenthesis next to the test material. […] These increases in anti-pain activity were statistically significant. […] This percent change was statistically significant when compared to its respective vehicle.

[2] = system: Carrageenan-induced paw edema in rats; assay: Carrageenan-induced paw edema in rats, paw edema (anti-inflammation); assay type: in vivo, rat
Experimental: (§1) Carrageenan-induced paw edema in rats was used to evaluate the anti-inflammatory and anti-pain activities of individual Alpinia, Pepper, Magnolia and Kochia extracts. Sprague Dawley (SD) rats (N=5 per group) were given Alpinia, Pepper, Magnolia and Kochia extracts at 300 mg/kg orally one hour […] intra-plantar injection of 100 μl carrageenan. Pain sensitivity and paw edema were monitored at T0 (before carrageenan) and 2, 4 and 6 hours after carrageenan. Ibuprofen as a positive control was used at 150 mg/kg.
(§2) Rats were gavaged with each constituent as they appeared in the 300 mg/kg of the AMK individually in order to determine whether the plant extracts acted synergistically. For the 2:4:3 ratio of AMK, rats were administered with 67 mg/kg of Alpinia extract, 133 mg/kg of Magnolia extract and 100 mg/kg of Kochia extract. The percent inhibition of pain and inflammation of the combined compositions at 300 mg/kg were compared with those dosages of individual extracts to find out potential additive, antagonistic or synergistic effects in combination using the Colby's equation.
(§3) The merit of combining Alpinia with Pepper for AP (1:2 ratio) was evaluated in the carrageenan rat paw edema model. Rats were gavaged with each constituent as they appeared in 300 mg/kg of the AP. For the 1:2 ratio of AP, 100 mg/kg of Alpinia and 200 mg/kg of Pepper extract were administered to the rats. The percent inhibition of pain and inflammation of the compositions at 300 mg/kg was compared with those dosages of individual extracts to find out potential additive, antagonistic or synergistic effects in combination using Colby's equation (Colby 1967). For the blending of these plant extracts to have unexpected synergy, the observed inhibition needed to be greater than the calculated value.

[3] = system: Carrageenan-induced paw edema in rats; assay: Carrageenan-induced paw edema in rats, pain sensitivity (anti-pain); assay type: in vivo, rat
Experimental: as §1, §2, §3

[4] = hot plate 53° C., topical, vehicle V1 (DMSO+PG+Aloe 2%), dose (%): Ibuprofen 5, Capsaicin 0.5, Diclofenac 1, others 5
[5] = vs vehicle V1, dose (%): Ibuprofen 5, Capsaicin 0.5, Diclofenac 1, others 5
[6] = 100 mg/kg oral, 1 hr after treatment
[7] = 100 mg/kg oral, 3 hr after treatment
[8] = 100 mg/kg oral, 5 hr after treatment
[9] = 150 mg/kg oral, 1 hr after treatment
[10] = 150 mg/kg oral, 3 hr after treatment
[11] = 150 mg/kg oral, 5 hr after treatment

`CC(=O)OC/C=C/c1ccc(OC(C)=O)cc1` [p-coumaryl diacetate] was tested, and the inhibition at 25 µg/mL ([1]; Oryctolagus cuniculus) was 111% and the inhibition at 100 µg/mL ([1]; Oryctolagus cuniculus) was 138%.
`CC1(C)CCC2(C(=O)O)CCC3(C)C(=CCC4C5(C)CCC(OC6OC(C(=O)O)C(O)C(OC7OCC(O)C(O)C7O)C6O)C(C)(C)C5CCC43C)C2C1` (stereo not drawn) [Momordin lc] showed an inhibition at 25 µg/mL ([1]; Oryctolagus cuniculus) of 84% and an inhibition at 100 µg/mL ([1]; Oryctolagus cuniculus) of 83%.
In the case of `CC1CCC(C(C)C)C(O)C1` (stereo not drawn) [Menthol], the “Paw withdrawal threshold (latency) Mean ± SD” value (Sprague Dawley rats; [4]) is reported as 6.05 ± 1.70 and the “% Change” value (Sprague Dawley rats; [5]) is reported as 15.1%.
For `C=CCc1ccc(O)c(-c2ccc(O)c(CC=C)c2)c1` [Honokiol], the inhibition at 10 µg/mL ([1]; Oryctolagus cuniculus, 10 μg/ml) was 104% and the inhibition at 50 µg/mL ([1]; Oryctolagus cuniculus, 50 μg/ml) was 119%.
With `CC(C)Cc1ccc(C(C)C(=O)O)cc1` (stereo not drawn) [Ibuprofen] the “Anti-inflammation Percent change vs vehicle” value [2, 6] was 50.07% and 45.00% and 51.0%, the “Anti-inflammation Percent change vs vehicle” value [2, 7] was 47.40% and 50.31% and 48.0% and the “Anti-inflammation Percent change vs vehicle” value [2, 8] was 37.28% and 41.84% and 39.0%. For the same compound, the “Paw edema, Average” value ([2]; 150 mg/kg oral, 1 hr) was 1.43, the “Anti-inflammation Percent change vs vehicle” value [2, 9] was 43.03% and 49.50% and 47.3% and the “Paw edema, Average” value ([2]; 150 mg/kg oral, 3 hr) was 1.59. For the same compound, the “Anti-inflammation Percent change vs vehicle” value [2, 10] was 48.38% and 48.62% and 49.7%, the “Paw edema, Average” value ([2]; 150 mg/kg oral, 5 hr) was 1.77 and the “Anti-inflammation Percent change vs vehicle” value [2, 11] was 36.79% and 37.66% and 37.6%. The “Anti-pain Percent change vs vehicle” value [3, 6] was 50.51% and 48.44% and 50.5%, the “Anti-pain Percent change vs vehicle” value [3, 7] was 46.37% and 47.46% and 46.1% and the “Anti-pain Percent change vs vehicle” value [3, 8] was 37.42% and 37.77% and 38.5%. For the same compound, the “Pain sensitivity, Average” value ([3]; 150 mg/kg oral, 1 hr) was 25.02, the “Anti-pain Percent change vs vehicle” value [3, 9] was 46.49% and 50.51% and 44.4% and the “Pain sensitivity, Average” value ([3]; 150 mg/kg oral, 3 hr) was 35.67. For the same compound, the “Anti-pain Percent change vs vehicle” value [3, 10] was 45.85% and 46.37% and 47.9%, the “Pain sensitivity, Average” value ([3]; 150 mg/kg oral, 5 hr) was 45.49 and the “Anti-pain Percent change vs vehicle” value [3, 11] was 33.55% and 37.42% and 30.8%. The “Paw withdrawal threshold (latency) Mean ± SD” value (Sprague Dawley rats; [4]) was 8.73 ± 1.37, the “Paw withdrawal threshold (latency) Mean ± SD” value (Sprague Dawley rats; hot plate 53° C., topical, vehicle V2 (DMSO+OIL+PG), run 2, dose 5%) was 6.05 ± 1.98 and the “increase in paw withdrawal latency as compared to vehicle” value (Sprague Dawley rats; topical, hot plate 53° C.) was 22.4%. For the same compound, the “% Change” value (Sprague Dawley rats; [5]) was −22.4% and the “% Change” value (Sprague Dawley rats; vs vehicle V2 run 2, dose 5%) was −23.98%.
In the case of `C=CCc1ccc(O)c(-c2cc(CC=C)ccc2O)c1` [Magnolol], the “Inhibition of GAG release” value ([1]; 10 μg/ml) is reported as 97% and the “Inhibition of GAG release” value ([1]; 50 μg/ml) is reported as 97%.
`C=C[C@H](OC(C)=O)c1ccc(OC(C)=O)cc1` [1′-acetoxychavicol acetate] gave an inhibition at 25 µg/mL ([1]; Oryctolagus cuniculus) of 99% and an inhibition at 100 µg/mL ([1]; Oryctolagus cuniculus) of 109%.
`COc1cc(CNC(=O)CCCC/C=C/C(C)C)ccc1O` [Capsaicin] was tested, and the “Paw withdrawal threshold (latency) Mean ± SD” value (Sprague Dawley rats; [4]) was 4.51 ± 1.12, the “decrease in paw withdrawal latency compared to vehicle” value (Sprague Dawley rats; topical, hot plate 53° C.) was 36.7% and the “% Change” value (Sprague Dawley rats; [5]) was 36.7%.
For Piperine, the “Inhibition of GAG release” value ([1]; 50 μg/ml) was 98%, the “Paw withdrawal threshold (latency) Mean ± SD” value (Sprague Dawley rats; hot plate 53° C., topical, vehicle V2 (DMSO+OIL+PG), run 1, dose 5%) was 7.97 ± 1.86 and the “increase in paw withdrawal latency as compared to vehicle” value (Sprague Dawley rats; topical, hot plate 53° C.) was 32.6%. The “% Change” value (Sprague Dawley rats; vs vehicle V2 run 1, dose 5%) was −32.6%.
